Data on one molecule can be found in US9296691B2, “Inhibitors of p75 receptor and their uses” (Horacio Uri Saragovi, priority 2010, dated 2016).

One experiment concerns anti-NGF mAb NGF30. Put plainly: Competitive ELISA, anti-NGF mAb NGF30 binding to immobilized NGF (selectivity control). The procedure: The effect of compounds I-B and LM-24 on the binding between NGF and p75 was tested in competitive ELISA assays, where the antagonists prevent soluble p75 from binding to immobilized NGF. The selectivity of antagonism was evaluated by lack of effect upon NGF-TrkA or lack of effect between NGF and anti-NGF monoclonal antibody (mAb) NGF30 interactions (FIG. 1A).
Competitive ELISAs were performed as described (Saragovi et al., 1998). The procedure immobilized 50 ng/well NGF, or pro-NGF (Alomone Labs, Israel) onto polystyrene 96-well microtest plates, with washing and blocking with binding buffer (BB; phosphate buffered saline containing 0.5% bovine serum albumin). The following primary reagents in BB were added: recombinant chimeric p75-Fc or recombinant chimeric TrkA-Fc (R&D), or anti-NGF mAb NGF30 (Saragovi et al., 1998); each at 50 nM. The competitors I-B and the other test compounds (or control LM-24) were added at the indicated concentrations, and the plates were incubated for 45 minutes. After washing 3× in BB, HRP-conjugated secondary reagents (Sigma) were added for 30 min (goat anti-human Fc for p75-Fc and for TrkA-Fc; and goat anti-rat Ab for NGF30 mAb), and then wells were washed 3× in BB and 1× in PBS. Peroxidase activity was determined colorimetrically using the substrate TMB One Solution (Promega). The reaction was stopped with 0.5 N H2SO4 and the plates were read at 450 nm (Benchmark Plus, Bio-Rad). Assays were repeated n>4 times, with replicates of 4 wells each assay. […] Wells with no NGF immobilized but with all other reagents added were treated as background (<15% of maximal signals) and standardized to 0% binding.
In general terms: ELISA stands for enzyme-linked immunosorbent assay.

In another experiment the test system is α2M. Put plainly: Glaucoma model, retinal α2M by western blot. The experiment is classed as in vivo, rat. To be noted: intravitreal injection at glaucoma day 14, measured 3 and 5 days later. The procedure: After 14-days of glaucoma eyes were injected intravitreally with p75NTR antagonists, and the levels of TNF-α and α2M were measured three days later (e.g. day 17 of glaucoma) and five days later (e.g. day 19 of glaucoma) (FIG. 3A).
Both retinas of each animal were detergent solubilized, and studied in independent gels standardized to loading control. The ratio of the glaucoma eye ±treatment versus the normal contralateral eye was calculated, and results were averaged ±sem, n=3 animals per group. In glaucoma, all drug treatments were done at day 14 of hypertension. In one group the retinas were harvested at day 17 of glaucoma (3 days after intraocular injection) and in the other group the retinas were harvested at day 19 of glaucoma (5 days after intraocular injection). Normal eyes treated with NGF-A were collected in the indicated days. After SDS-PAGE and western transfer, membranes were immunoblotted with rabbit polyclonal antibodies against TNF-α (Preprotech) or α2M (Santa Cruz) at a 1:3000 dilution. Goat anti-rabbit secondary antibodies conjugated to horseradish peroxidase (Sigma) were used at a 1:10,000 dilution. Loading was controlled with antibodies to β-actin (Sigma). For digital quantification, membranes were scanned and analyzed using ImageJ software.
(In general: Immunoblotting shows a protein as a band on a membrane.)

Experiment [1] has as its system retinal ganglion cells (RGCs). Put plainly: ON axotomy model, quantification of surviving RGCs (fluorogold labeled). In kind it is in vivo. To be noted: rat ON axotomy, one intravitreal injection 3 μg, day 14; contralateral normal eye = 100%; control axotomy 10%. The procedure:
Wistar rats (female, 250-300 g; Charles River) were kept in a 12 hours dark-light cycle with food and water ad libitum. All animal manipulations were performed between 9 AM and 12 AM. Deep anesthesia was used during cauterization (induction of glaucoma), ON transection, fluorogold labeling, intraocular injection procedures, Optical Coherence Tomography measurements, and euthanasia (ketamine, xylazine, acepromazine injected intraperitoneally: 50/5/1 mg/kg, as per IACUC recommendations). For measuring IOP, light anesthesia was used (a gas mixture of Oxygen, 2% isofluorane mixture, at a rate of 2.5 liter/min, as per IACUC recommendations).
The ON axotomy model in the rat (Bai et al., 2010a) was used. […]
For studies in the glaucoma animal model the injections were performed at days 14 and 21 after cauterization. […] Thus, in this paradigm there is pre-existing damage for 14 days before treatment (measured at ˜8% RGC death (Shi et al., 2007; Shi et al., 2008)); and the treatments require long-lived efficacy in the constant presence of retinal stress due to high IOP. […]
Quantification of labeled RGCs was performed as reported (Shi et al., 2007; Shi et al., 2008). […] Pictures for each freshly flat-mounted retina were taken using a Zeiss fluorescence microscope (Carl Zeiss Meditec, Jena, Germany), with 12 pictures/retina at 20× magnification. […]

In the case of `CC(C)NC(=O)N(C(=O)Cn1cnc2c1c(=O)n(C)c(=O)n2C)C(C)C` [I-B, 1,3-Diisopropyl-1-[2-(1,3-dimethyl-2,6-dioxo-1,2,3,6-tetrahydro-purin-7-yl)-acetyl]-urea], in the experiment with anti-NGF mAb NGF30 (binding to immobilized NGF, no cpd = 100%, mAb NGF30 50 nM, as described for FIG. 1A), the “NGF30 binding AVERAGE” value is 88%. Besides, the “effect on mAb NGF30 binding to NGF” value in the experiment on anti-NGF mAb NGF30 (competitive ELISA, FIG. 1A, compound at 30 μM) was “did not interfere”. The “α2M level in glaucomatous retina, fold-change versus normal retina” value in the experiment on α2M is listed as “time-dependent inhibition”. In experiment [1], the RGCs surviving is recorded as 37%.
